Assay results: ChEMBL document CHEMBL1949669, “Imidazopyridines as selective CYP3A4 inhibitors” (Bioorg Med Chem Lett, 2012)
In brackets after ≈: the same amount, converted by molar mass.

Columns and labels:
[1] = Solubility of the compound; format: physicochemical
[2] = Half life in human liver microsomes; format: ADME, Microsome
[3] = Half life in human hepatic S9 fraction; format: ADME, subcellular, Liver

| SMILES | solubility [1] [µM] | half-life [2] [min] | half-life [3] [min] |
| --- | --- | --- | --- |
| O=C(Nc1ccc(-c2ccccc2)cc1)Nc1ccc(-c2ccnc3[nH]cnc23)cc1 | 2 (≈ 0.811 µg/mL) | – | – |
| CCOC(=O)c1cccc(NC(=O)Nc2ccc(-c3ccnc4[nH]cnc34)cc2)c1 | – | 8 | 8 |
